Data: ChEMBL document CHEMBL1128346, “Peptidyl alpha-ketoheterocyclic inhibitors of human neutrophil elastase. 2. Effect of varying the heterocyclic ring on in vitro potency” (J Med Chem, 1995)

These compounds were tested against T1, Neutrophil elastase (Homo sapiens, UniProt P08246) (assay: In vitro inhibitory activity against human neutrophil elastase (HNE) catalyzed hydrolysis of the synthetic substrate MeO-Suc-Ala- Ala-Pro-Val-pN).
T1 sequence (P08246 whole entry): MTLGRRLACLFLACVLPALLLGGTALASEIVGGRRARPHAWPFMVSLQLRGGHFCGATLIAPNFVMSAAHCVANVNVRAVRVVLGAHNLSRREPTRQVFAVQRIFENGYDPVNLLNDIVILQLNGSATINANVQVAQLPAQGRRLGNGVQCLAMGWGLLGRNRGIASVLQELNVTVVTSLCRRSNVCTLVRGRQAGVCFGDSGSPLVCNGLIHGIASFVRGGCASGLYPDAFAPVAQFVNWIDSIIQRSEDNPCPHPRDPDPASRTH
For `CC(C)[C@H](NC(=O)[C@@H]1CCCN1C(=O)[C@@H](NC(=O)OCc1ccccc1)C(C)C)C(=O)C(N)=O`, the Ki was 1.8 nM.
`CC(C)[C@H](NC(=O)[C@@H]1CCCN1C(=O)[C@@H](NC(=O)OCc1ccccc1)C(C)C)C(=O)c1ncoc1-c1ccccc1` was tested, and the Ki was 330 nM.
`CCCCC(=O)C(=O)[C@@H](NC(=O)[C@@H]1CCCN1C(=O)[C@@H](NC(=O)OCc1ccccc1)C(C)C)C(C)C` gave a Ki of 1.6 nM.
`CC(C)[C@H](NC(=O)OCc1ccccc1)C(=O)N1CCC[C@H]1C(=O)N[C@H](C(=O)C(F)(F)C(=O)NCc1ccccc1)C(C)C` showed a Ki of 0.4 nM.
`CC(C)[C@H](NC(=O)[C@@H]1CCCN1C(=O)[C@@H](NC(=O)OCc1ccccc1)C(C)C)C(=O)c1nnn(C)n1` showed a Ki of 49 nM.
With `CC(C)[C@H](NC(=O)[C@@H]1CCCN1C(=O)[C@@H](NC(=O)OCc1ccccc1)C(C)C)C(=O)C1=N[C@@H](C)CO1` the Ki was 1.2 nM.
`CCOc1cccnc1C(=O)[C@@H](NC(=O)[C@@H]1CCCN1C(=O)[C@@H](NC(=O)OCc1ccccc1)C(C)C)C(C)C` showed a Ki of 87000 nM.
Compound `CC(C)[C@H](NC(=O)[C@@H]1CCCN1C(=O)[C@@H](NC(=O)OCc1ccccc1)C(C)C)C(=O)c1nnnn1C` has a Ki of 410 nM.
With `COC(=O)C(=O)[C@@H](NC(=O)[C@@H]1CCCN1C(=O)[C@@H](NC(=O)OCc1ccccc1)C(C)C)C(C)C` the Ki was 0.6 nM.

These compounds were tested against T1, Neutrophil elastase (assay: In vitro inhibitory activity against human neutrophil elastase (HNE) catalyzed hydrolysis of the synthetic substrate MeO-Suc-Ala- Ala-Pro-Val-pN; 'b' means could not be accurately determined due to low solubility).
For `CC(C)[C@H](NC(=O)[C@@H]1CCCN1C(=O)[C@@H](NC(=O)OCc1ccccc1)C(C)C)C(=O)c1cc2ccccc2s1`, the Ki was “Could not be accurately determined due to low solubility”.
